# Patent US11214803B2, “Modulators of YAP1 expression” (Ionis Pharmaceuticals, Inc., priority 2019, dated 2022)
# Marks after values point to notes of the source that are not given here. Strand notation (5' to 3'): a small letter for the sugar, then the base; units joined by * are phosphorothioate-linked, units joined directly phosphodiester-linked; [ ] holds rarer units or linkages, { } end groups; capitals alone tell only the bases. k = constrained ethyl (cEt); [5mC] = 5-methylcytosine; d = 2'-deoxy (DNA)
# Tested on: Yap1 mRNA
# Test: Antisense inhibition of human Yap1 in A-431 cells by cEt gapmers, single dose (Example 4, RTS4814)
# Assay type: cell-based
# Experimental: Modified oligonucleotides were designed to target a Yap1 nucleic acid and were tested for their effect on Yap1 mRNA level in vitro. The modified oligonucleotides were tested in a series of experiments that had similar culture conditions. Cultured A-431 cells at a density of 5,000 cells per well were treated using free uptake with 2,000 nM of modified oligonucleotide. After a treatment period of approximately 48 hours, RNA was isolated from the cells and Yap1 mRNA levels were measured by quantitative real-time RTPCR. Human primer probe set RTS4814 was used to measure mRNA levels. Yap1 mRNA levels were normalized to total RNA content, as measured by RIBOGREEN®. Results are presented in the tables below as percent control of the amount of Yap1 mRNA relative to untreated control cells (% UTC). The modified oligonucleotides with percent control values marked with an asterisk (*) target the amplicon region of the primer probe set. Additional assays may be used to measure the potency and efficacy of the modified oligonucleotides targeting the amplicon region.
# The newly designed modified oligonucleotides in the Tables below were designed as 3-10-3 cEt gapmers. The gapmers are 16 nucleosides in length, wherein the central gap segment comprises of ten 2′-deoxynucleosides and is flanked by wing segments on the 5′ direction and the 3′ direction comprising three nucleosides each. Each nucleoside in the 5′ wing segment and each nucleoside in the 3′ wing segment has a cEt sugar modification. The internucleoside linkages throughout each gapmer are phosphorothioate (P═S) linkages. All cytosine residues throughout each gapmer are 5-methylcytosines.
# “Start site” indicates the 5′-most nucleoside to which the gapmer is targeted in the human gene sequence. “Stop site” indicates the 3′-most nucleoside to which the gapmer is targeted human gene sequence. […] Activity of the modified oligonucleotide may be defined in a different experiment.
# [1] = Yap1 mRNA remaining as percent of untreated control, 3-10-3 cEt gapmers, A-431 cells, Table 36
# [2] = Table 16, A-431 cells, 5,000 cells per well, free uptake, 2,000 nM, approximately 48 hours, RTS4814, normalized to RIBOGREEN, Yap1 mRNA relative to untreated control cells
# [3] = Table 15, A-431 cells, 5,000 cells per well, free uptake, 2,000 nM, approximately 48 hours, RTS4814, normalized to RIBOGREEN, Yap1 mRNA relative to untreated control, * = targets amplicon region of primer probe set
# [4] = Table 14, A-431 cells, 5,000 cells per well, free uptake, 2,000 nM, approximately 48 hours, RTS4814, normalized to RIBOGREEN, Yap1 mRNA relative to untreated control, * = targets amplicon region of primer probe set
# [5] = Table 17, A-431 cells, 5,000 cells per well, free uptake, 2,000 nM, approximately 48 hours, RTS4814, normalized to RIBOGREEN, Yap1 mRNA relative to untreated control cells
# [6] = Yap1 mRNA remaining as percent of untreated control, 3-10-3 cEt gapmers, A-431 cells, Table 37
substance,measurement,setting,value
1074870 (kG*kT*kA*dA*dG*dT*dA*d[5mC]*d[5mC]*dT*dA*dA*d[5mC]*kA*kT*kA; antisense) [compound 1074870],YAP1 (% UTC),[1],20 % UTC
1076226 (k[5mC]*kA*kT*dA*dT*dA*dA*dA*d[5mC]*d[5mC]*dT*dT*dG*k[5mC]*kT*kA; antisense) [Compound 1076226],YAP1 (% UTC),[2],36 % UTC
1076322 (kA*kT*kT*dT*dA*d[5mC]*dA*dA*dG*dT*dG*dA*dG*k[5mC]*kA*k[5mC]; antisense) [Compound 1076322],YAP1 (% UTC),[2],21 % UTC
1075297 (kG*kT*kT*dA*dA*dT*dT*dA*dT*dA*dA*dG*d[5mC]*kT*kG*kT; antisense) [Compound 1075297],YAP1 (% UTC),[3],10 % UTC
1074305 (antisense k[5mC]*kA*k[5mC]*d[5mC]*dT*dG*d[5mC]*d[5mC]*dG*dA*dA*dG*d[5mC]*kA*kG*kT) [Compound 1074305],YAP1 (% UTC),[3],64 % UTC
1075842 (kG*kT*kA*dT*dT*dT*dA*dG*dG*dT*dA*d[5mC]*dT*k[5mC]*kA*kG; antisense) [Compound 1075842],YAP1 (% UTC),[2],2 % UTC
1076160 (kT*kT*kA*dT*dA*d[5mC]*dT*dA*dG*dT*dA*d[5mC]*dG*kG*k[5mC]*kA; antisense) [Compound 1076160],YAP1 (% UTC),[4],20 % UTC
1076450 (k[5mC]*kT*kT*dG*dA*dA*dT*dA*dG*d[5mC]*dT*dA*dT*kG*kT*kG; antisense) [Compound 1076450],YAP1 (% UTC),[2],13 % UTC
1074979 (antisense kA*kT*kT*dG*d[5mC]*d[5mC]*dA*dG*dT*dT*d[5mC]*dT*dT*kG*kT*kT) [Compound 1074979],YAP1 (% UTC),[5],32 % UTC
1074551 (DNA kA*kA*kT*dA*dT*d[5mC]*dT*dA*d[5mC]*d[5mC]*dG*dT*dA*kT*kG*k[5mC]; antisense) [compound 1074551],YAP1 (% UTC),[6],58 % UTC
1075383 (antisense kA*kA*kT*dT*dA*dT*dT*dA*d[5mC]*d[5mC]*d[5mC]*dT*dA*k[5mC]*kT*k[5mC]) [compound 1075383],YAP1 (% UTC),[6],45 % UTC
1074210 (antisense kT*k[5mC]*k[5mC]*dG*dG*dA*dG*d[5mC]*d[5mC]*dT*d[5mC]*dA*dT*kG*kG*kG) [Compound 1074210],YAP1 (% UTC),[2],113 % UTC
1075459 (antisense kA*kA*k[5mC]*d[5mC]*dA*dA*dG*dG*dA*dT*dA*dG*dT*k[5mC]*kA*kT) [Compound 1075459],YAP1 (% UTC),[5],37 % UTC
1074850 (antisense kT*kT*kG*dT*dT*dA*dT*dG*dA*dT*dA*dG*dG*k[5mC]*kA*k[5mC]) [Compound 1074850],YAP1 (% UTC),[2],5 % UTC
1076512 (antisense k[5mC]*kA*kT*dA*dA*dA*d[5mC]*d[5mC]*dA*dT*dT*dA*dA*kG*kT*kG) [Compound 1076512],YAP1 (% UTC),[4],65 % UTC
1075671 (kG*kA*kT*dA*dT*dA*dT*dA*dT*dG*dA*dT*dG*kG*kA*k[5mC]; antisense) [compound 1075671],YAP1 (% UTC),[6],37 % UTC
1074390 (k[5mC]*kT*kG*d[5mC]*dA*dG*dA*d[5mC]*dT*dT*dG*dG*d[5mC]*kA*kT*k[5mC]; antisense) [compound 1074390],YAP1 (% UTC),[1],64 % UTC
1075574 (antisense kA*kG*kT*d[5mC]*dA*dA*dG*dG*dA*dA*d[5mC]*d[5mC]*dT*kT*k[5mC]*kT) [compound 1075574],YAP1 (% UTC),[1],47 % UTC
1074176 (antisense k[5mC]*kT*k[5mC]*d[5mC]*d[5mC]*d[5mC]*d[5mC]*dG*dA*d[5mC]*dG*d[5mC]*dG*k[5mC]*kA*k[5mC]) [Compound 1074176],YAP1 (% UTC),[4],84 % UTC
1076311 (kT*kA*kT*dA*dA*d[5mC]*d[5mC]*d[5mC]*dT*dA*dT*dA*d[5mC]*kT*kT*kG; antisense) [compound 1076311],YAP1 (% UTC),[6],56 % UTC
1075319 (antisense kT*kA*kT*dA*dA*d[5mC]*dA*dA*dT*d[5mC]*dA*dT*d[5mC]*k[5mC]*kT*kA) [compound 1075319],YAP1 (% UTC),[6],59 % UTC
1075073 (antisense k[5mC]*kA*kT*dA*dA*dA*dA*dG*dT*dT*d[5mC]*d[5mC]*d[5mC]*k[5mC]*kA*kG) [Compound 1075073],YAP1 (% UTC),[3],51 % UTC
1074903 (antisense k[5mC]*k[5mC]*kT*dA*dT*dT*dA*dA*d[5mC]*dT*dT*dT*dT*kG*kG*kG) [compound 1074903],YAP1 (% UTC),[6],87 % UTC
1074369 (antisense kT*kG*kA*dT*dA*dG*dT*dA*dT*d[5mC]*dA*d[5mC]*d[5mC]*kT*kG*kT) [Compound 1074369],YAP1 (% UTC),[3],19 % UTC
1074326 (antisense kA*k[5mC]*kG*d[5mC]*dA*dG*dG*dG*d[5mC]*dT*dA*dA*d[5mC]*kT*k[5mC]*k[5mC]) [compound 1074326],YAP1 (% UTC),[1],36 % UTC
1075904 (kG*kT*kA*dT*dA*dG*dG*dA*dT*d[5mC]*dT*dA*d[5mC]*kT*kA*kA; antisense) [Compound 1075904],YAP1 (% UTC),[4],51 % UTC
1075415 (antisense k[5mC]*kA*kT*dT*dA*dA*dA*dT*dG*dA*d[5mC]*dA*dG*k[5mC]*k[5mC]*kT) [compound 1075415],YAP1 (% UTC),[6],52 % UTC
1075777 (kT*kA*kT*dG*dT*dG*dA*dT*dA*dT*dG*dG*dA*kT*kT*k[5mC]; antisense) [Compound 1075777],YAP1 (% UTC),[3],12 % UTC
1074848 (kG*kT*kT*dA*dT*dG*dA*dT*dA*dG*dG*d[5mC]*dA*k[5mC]*kA*k[5mC]; antisense) [Compound 1074848],YAP1 (% UTC),[4],11 % UTC
1075617 (kT*kA*kA*dG*dA*dA*d[5mC]*dG*dA*d[5mC]*dA*dT*dA*kT*kG*k[5mC]; antisense) [Compound 1075617],YAP1 (% UTC),[3],27 % UTC
1074432 (antisense kG*kT*kT*dA*dA*dA*dA*dT*dG*dA*dT*dT*dG*kG*kT*kG) [Compound 1074432],YAP1 (% UTC),[4],3* % UTC
1076288 (k[5mC]*kT*kT*dA*dT*dT*dT*dA*dG*d[5mC]*dA*dT*dA*kG*kT*kG; antisense) [Compound 1076288],YAP1 (% UTC),[4],3 % UTC
1074807 (k[5mC]*k[5mC]*kA*dT*dA*dT*dA*dG*dA*dA*dG*dG*d[5mC]*kA*kT*kG; antisense) [compound 1074807],YAP1 (% UTC),[6],75 % UTC
1075907 (kA*kA*kT*dT*dA*d[5mC]*dT*dA*d[5mC]*dT*dG*dG*d[5mC]*k[5mC]*kA*kT; antisense) [Compound 1075907],YAP1 (% UTC),[5],55 % UTC
1075235 (antisense kA*kG*kT*dA*dA*dA*dT*dA*d[5mC]*dT*d[5mC]*dT*dA*kG*kT*kT) [Compound 1075235],YAP1 (% UTC),[5],38 % UTC
1075488 (antisense k[5mC]*kA*kG*dA*dA*dT*dA*dA*dG*dG*dG*dA*dG*kA*kT*k[5mC]) [Compound 1075488],YAP1 (% UTC),[4],56 % UTC
1074435 (kG*kA*k[5mC]*dT*dT*d[5mC]*dT*dA*dA*dG*dT*d[5mC]*dT*kG*kA*kG; antisense) [Compound 1074435],YAP1 (% UTC),[5],19* % UTC
1074743 (kG*kA*kA*dA*dG*dG*dA*d[5mC]*dT*d[5mC]*dT*dT*dA*kG*kG*kT; antisense) [compound 1074743],YAP1 (% UTC),[6],16 % UTC
1075362 (k[5mC]*kA*kG*dG*dA*dA*dA*dA*dA*dT*d[5mC]*dT*dA*kG*kG*kT; antisense) [Compound 1075362],YAP1 (% UTC),[2],50 % UTC
1074934 (antisense k[5mC]*kA*kG*dG*dA*dG*dA*d[5mC]*dT*dA*dT*dA*d[5mC]*kA*kA*k[5mC]) [compound 1074934],YAP1 (% UTC),[1],74 % UTC
1075137 (antisense kG*kA*kT*dT*dA*dA*dA*dT*dA*d[5mC]*dT*dG*dA*k[5mC]*k[5mC]*kA) [Compound 1075137],YAP1 (% UTC),[3],3 % UTC
1075808 (kG*k[5mC]*kA*dA*dT*dA*dG*dA*dG*dT*dA*dA*d[5mC]*k[5mC]*kA*kG; antisense) [Compound 1075808],YAP1 (% UTC),[4],3 % UTC
1074817 (k[5mC]*kT*kG*dA*dA*dT*dA*dT*dT*dG*d[5mC]*d[5mC]*dA*k[5mC]*k[5mC]*k[5mC]; antisense) [Compound 1074817],YAP1 (% UTC),[3],8 % UTC
1074498 (kA*k[5mC]*kA*dA*dT*dA*dA*d[5mC]*d[5mC]*dA*dT*d[5mC]*d[5mC]*k[5mC]*kA*kA; antisense) [Compound 1074498],YAP1 (% UTC),[2],17 % UTC
1076513 (antisense k[5mC]*kA*kT*dT*dA*dA*d[5mC]*dA*d[5mC]*dT*d[5mC]*d[5mC]*dT*k[5mC]*kA*kG) [Compound 1076513],YAP1 (% UTC),[3],36 % UTC
